These results are taken from ChEMBL document CHEMBL1201862, “PubChem BioAssay data set” (2004).

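Values below derive from 48-hour exposures of cells grown in 96-well plates, with endpoints linearly interpolated between the two concentrations bracketing the appropriate inhibition level. The concentration for 50% growth inhibition is given as GI50.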 Active and inactive are the calls of the source. Cut-off read from the data, not from the text of the source: active = GI50 up to about 1.1 µM and inactive = higher. A value given as a limit tells only on which side of the number the result lay.

Some test systems named below: SW-620; SN12C; EKVX; SNB-75; SF-295; NCI-H522; HCT-116; M14; SF-268; HOP-62; Malme-3M; K562; SNB-19; UACC-257; OVCAR-5; MOLT-4; SK-MEL-28; SF-539; NCI-H23; OVCAR-4.
Assay in all cases: NCI anticancer screen, dose series, 48 h

As to `C=C1CC(C)(COc2ccc3c(C)cc(=O)oc3c2)OC1=O` (stereo not given), the GI50 was 0.431 µM (active) in the assay on SW-620; 3.86 µM (inactive) with SN12C; 4.7 µM (inactive) in the assay with EKVX; 5.42 µM (inactive) in the assay with SNB-75; 4.34 µM (inactive) with SF-295; 0.276 µM (active) with NCI-H522. The GI50 in the assay with HCT-116 was 0.778 µM (active); in the assay on M14, 1.34 µM (inactive); with SF-268 it was 4.41 µM (inactive); in the assay with HOP-62 it was 13.8 µM (inactive); in the assay on Malme-3M it was 1.29 µM (inactive); in the assay on K562, 0.313 µM (active). Further, the GI50 was 13.7 µM (inactive) in the assay with SNB-19; 1.25 µM (inactive) in the assay on UACC-257; 4.22 µM (inactive) in the assay with OVCAR-5; 1.47 µM (inactive) in the assay on MOLT-4; 2.72 µM (inactive) in the assay on SK-MEL-28; 0.951 µM (active) in the assay with SF-539. For the same molecule, the GI50 with NCI-H23 was 1.57 µM (inactive); with OVCAR-4, 2.62 µM (inactive).

For the molecule `COc1ccc(NCC(=O)Nn2c(-c3ccccc3)nc3ccccc3c2=O)cc1`, the GI50 was 28.2 µM (inactive) with SW-620; 36.6 µM (inactive) in the assay with SN12C; 69.2 µM (inactive) in the assay on EKVX; 44.4 µM (inactive) with SNB-75; > 100 µM (inactive) in the assay with SF-295; > 10 µM (inactive) in the assay with NCI-H522. The GI50 in the assay on HCT-116 is > 10 µM (inactive); in the assay with M14, 41.3 µM (inactive); with SF-268, 36.2 µM (inactive); in the assay with HOP-62 it was 86.1 µM (inactive); in the assay with Malme-3M, 30 µM (inactive); in the assay with K562, 24.5 µM (inactive). Besides, the GI50 with SNB-19 is 50.2 µM (inactive); with UACC-257 it was 52.2 µM (inactive); with OVCAR-5 it was > 100 µM (inactive); in the assay with MOLT-4 it was 18.4 µM (inactive); with SK-MEL-28, 74.5 µM (inactive); with SF-539, 39.2 µM (inactive). Further, the GI50 with NCI-H23 was 37.2 µM (inactive); with OVCAR-4 it was 33.7 µM (inactive).

Take `CC1(C)COC2C(N(Cc3ccccc3)Cc3ccccc3)C(=O)N21` (stereo not given): the GI50 is 35.9 µM (inactive) with SW-620; 47.3 µM (inactive) with SN12C; 73.1 µM (inactive) in the assay with EKVX; 20 µM (inactive) in the assay with SNB-75; 32.1 µM (inactive) in the assay with SF-295; 19.4 µM (inactive) in the assay on NCI-H522. Further, the GI50 is 33.4 µM (inactive) with HCT-116; 23.1 µM (inactive) with M14; 25.2 µM (inactive) with SF-268; 36.9 µM (inactive) in the assay with HOP-62; 38.6 µM (inactive) with Malme-3M; 27.9 µM (inactive) in the assay with K562. Besides, the GI50 was 24 µM (inactive) in the assay with SNB-19; 98.6 µM (inactive) in the assay with UACC-257; > 100 µM (inactive) in the assay on OVCAR-5; 25.9 µM (inactive) in the assay with MOLT-4; 42.3 µM (inactive) in the assay on SK-MEL-28; 25.9 µM (inactive) in the assay on SF-539. The GI50 in the assay on NCI-H23 was 34.3 µM (inactive); with OVCAR-4, 27.9 µM (inactive).

Consider `Cc1cc(N(CCC#N)S(=O)(=O)c2ccccc2)ccc1/C=N\c1cccc(C(=O)O)c1`, for which the GI50 was > 100 µM (inactive) in the assay with SW-620; > 100 µM (inactive) with SN12C; > 100 µM (inactive) with EKVX; 35.6 µM (inactive) in the assay with SNB-75; > 100 µM (inactive) in the assay with SF-295; > 100 µM (inactive) in the assay with NCI-H522. Moreover, the GI50 in the assay with HCT-116 was > 100 µM (inactive); in the assay on M14 it was > 100 µM (inactive); with SF-268, 60.1 µM (inactive); in the assay on HOP-62, > 100 µM (inactive); in the assay with Malme-3M, > 100 µM (inactive); with K562 it was 71 µM (inactive). For the same molecule, the GI50 with SNB-19, in the assay on UACC-257, with OVCAR-5, with MOLT-4, with SK-MEL-28 and in the assay with SF-539 was > 100 µM (inactive) each time. Besides, the GI50 in the assay on NCI-H23 and in the assay on OVCAR-4 was > 100 µM (inactive) in each case.

Consider `O=C(c1cccs1)N(C(=S)OC12CC3CC(CC(C3)C1)C2)c1ccccc1`, for which the GI50 with SW-620 is 40.7 µM (inactive); in the assay with SN12C, 27 µM (inactive); with EKVX it was 17.8 µM (inactive); in the assay on SNB-75, 85.7 µM (inactive); with SF-295, 27.9 µM (inactive); with NCI-H522, 17.2 µM (inactive). Moreover, the GI50 in the assay on HCT-116 was 22.2 µM (inactive); in the assay on M14, 19.2 µM (inactive); in the assay on SF-268, 37.6 µM (inactive); in the assay with HOP-62, 47.6 µM (inactive); in the assay on Malme-3M it was 43.2 µM (inactive); in the assay with K562 it was 26.8 µM (inactive). Further, the GI50 in the assay with SNB-19 was 33.7 µM (inactive); in the assay on UACC-257, 39.5 µM (inactive); with OVCAR-5, 29.4 µM (inactive); in the assay with MOLT-4, 26.1 µM (inactive); in the assay on SK-MEL-28, 54.8 µM (inactive); with SF-539 it was 34.5 µM (inactive). In addition, the GI50 is 30.2 µM (inactive) with NCI-H23 and 35 µM (inactive) with OVCAR-4.
